Measurements: US20230094545A1, “S1P RECEPTOR MODULATORS” (AKAAL PHARMA PTY LTD, priority 2020, published 2023)
Where two headings read alike, the source gives them in different places.

Tests used:
[1] = tested on: dinitrofluorobenzene (DNFB)-induced delayed-type hypersensitivity; test: DNFB-induced delayed-type hypersensitivity (DTH); type: in vivo; details: 3 mg/kg twice daily
Experimental: The efficacy of compound of formula (I) was determined in an animal model of dinitrofluorobenzene (DNFB)-induced delayed-type hypersensitivity (DTH), an inflammatory model. The animals (n=9) were treated with the vehicle or a compound of formula (I), receiving a twice daily dose of 3 mg/kg. The efficacy end points were measured as Ear thickness before challenge and 24 h after challenge. Ear weight was measured 24 h after challenge. At sacrifice, right ear samples were collected and used for tissue MPO activity.

[2] = tested on: microglial (BV2 cells) and macrophages (Raw cells); test: LPS-treated microglial and macrophage cells, cytokines by ELISA; type: cell-based; details: 1-5 μg/mL, 4 hrs prior to LPS 500 ng/mL, p<0.05
Experimental: Treatment of a compound of formula (I) (1-5 μg/mL) to the cultured microglial (BV2 cells) and macrophages (Raw cells) was made 4 hrs prior to treatment with lipopolysaccharide (LPS) at 500 ng/mL. After 16-18 hr of drug treatment the cytokines (TNFα, IL1β and IL6) were measured in culture media by ELISA and expression levels of cyclooxygenase2 (Cox-2), inducible […] (iNOS) or beta actin were analysed in cell homogenates by western analysis.

[3] = tested on: kainic acid induced seizures; test: Kainic acid model of epilepsy; type: in vivo, Sprague Dawley rats
Experimental: In an animal model of epilepsy, Sprague Dawley rats (n=6) were treated with the compound of Formula I or vehicle, dosed 1 hour prior to kainic acid administration (10 mg/kg, IP). […] There was significant reduction in seizures (70%, p<0.005) in the compound of formula (I) treated group. The changes observed in the hippocampal region of control animals included, minimal to mild neuronal cell death which included vaculations in neuronal cells particularly at C3 and C1 regions proving the compound of Formula I is neuroprotective.

[4] = Topical treatment of psoriasis patients; type: in vivo, human; details: human, in vivo, 30 mg daily; after topical applications, below the limit of quantification; read-out: systemic exposure
Experimental: (§1) Twelve psoriasis patients were treated with the compound of Formula I@30 mg daily dosing under occlusion as topical treatment for 28 consecutive days. […] The systemic exposure after topical applications was recorded below the limit of quantification (BLQ) <0.400 ng/mL.

[5] = tested on: psoriasis; test: Topical treatment of psoriasis patients; type: in vivo, human
Experimental: as §1

[6] = tested on: RAW 264.7 cell line (monocyte cells); test: Heat-killed P. acne challenged RAW 264.7 cells, cytokines by ELISA; type: cell-based; details: Mus musculus, RAW264.7, compared to untreated
Experimental: RAW 264.7 cell line (monocyte cells) challenged with the heat-killed Propionibacterium acne (P. acne) and incubated for 1 hour and were divided into four groups as G1=not challenged with P. acne, G2=challenged with P. acne but untreated, G3=challenged with P. acne and treated with 1 μM of compound of formula I, G3=challenged with P. acne and treated with 3 μM of compound of formula I. The ELISA method was used to analyze the effect of compound of formula I on the secretion of proinflammatory cytokines the TNFα and IL6. Compound of formula I inhibits the cytokines in P. acne challenged monocyte cells. The results are shown in below FIG. 6. The compound of formula I inhibit the secretion of TNFα@1 μM=˜42% and @3 μM=˜69% and IL6@1 μM=˜27% and @3 μM=˜42% compared to untreated in P. acne challenged cell line.

[7] = tested on: experimental autoimmune encephalomyelitis (EAE); test: EAE model, RT-PCR for IL-31, IL1β and IFNγ in spleen; type: in vivo; details: 3 mg/kg from 11th day, Day 27
Experimental: The efficacy of the compound of formula (I) was assessed in an animal model of experimental autoimmune encephalomyelitis (EAE), which is a widely-accepted model of demyelinating diseases such as MS. The cDNA was prepared from spleen obtained from Vehicle treated (Control), EAE induced (no treatment) and EAE induced (a compound of formula (I) treated) animals (n=5 each group) at the recovery (Day 27 from 1st day of MBP immunization). The treatment with a compound of Formula I (3 mg/kg) was initiated on the 11th day from MBP immunization. cDNA was synthesized using Bio-Rad cDNA synthesis kit. RT-PCR was performed for IL-31, IL1β and IFNγ. Primers were obtained from Qiagen and the samples were analysed on Bio-Rad CFX96Real-Time System. […] Statistical Significance of the data is represented by p value. *denotes p≤0.05, **denotes p≤0.01.

[8] = tested on: mould; test: Anti-mould (antifungal) activity on wheat flour bread; details: 1% ww and 3% ww water solution on bread, day 14, room temperature
Experimental: The compound of formula I solution as 0% ww, 1% ww and 3% ww as I mL water solution was added to a glass jar (5 mL) containing the fresh wheat flour bread (1 gm). The content was mixed well in order to wet the bread with solution. The content was kept in open glass cylinder for 14 days at room temperature and light (normal conditions) and the photos of Day 1 and Day 14 were taken (FIGS. 5A and B respectively). […] The mould is common in many skin indications and other human, animal and plant diseases. For example, Rhizopus stolonifera.

[9] = read-out: inhibition of secretion of IL6
[10] = read-out: inhibition of secretion of TNFα

CCCOc1ccc(-c2nc(-c3ccc4oc(C(N)(CO)CO)cc4c3)no2)cc1Cl [compound of formula (I)]
MPO activity (ear tissue) [1]: significantly reduced
reduction of ear thickness ([1]; 24 h after challenge, p<0.0001): ~70%
reduction of ear weight ([1]; 24 h after challenge, p<0.01): ~50%
proinflammatory cytokines (TNFα, IL1β and IL6) [2]: significant reduction of proinflammatory cytokines
reduction in seizures ([3]; dosed 1 hour prior to kainic acid, p<0.005): 70%
neuroprotection (hippocampal histology) ([3]; rat, in vivo): neuroprotective
concentration at 28 days [4]: < 0.4 ng/mL
absolute lymphocyte count ([5]; 30 mg daily topical, 28 days): no systemic change in the absolute lymphocyte count
tolerability ([5]; 30 mg daily topical, 28 days): well tolerated
local psoriasis severity index (LPSI) score ([5]; day 28, from 5.8 (day 1), 30 mg daily topical under occlusion, p<0.0016): −2.1
plaque area ([5]; some subjects, image analysis): reduction in plaque area
inhibition at 1 µM [6, 9]: ~27%
inhibition at 1 µM [6, 10]: ~42%
inhibition at 3 µM [6, 9]: ~42%
inhibition at 3 µM [6, 10]: ~69%
markers of inflammation (IL-31, IL1β, IFNγ, RT-PCR, spleen) [7]: significantly reduced markers of inflammation
mould growth [8]: preventing mould growth at day 14
